Test results published in US8139339B2, “Modulation of neuromuscular functions with ultrashort electrical pulses” (Old Dominion University Research Foundation, priority 2007, dated 2012).
Read-outs that look alike come from different tables or passages of the source.

Tests used:
[1] = system: hippocampal CA1 neurons; conditions: cited from earlier work
[2] = system: liver cells; conditions: oxidative stress-activated NSCCs; cited from earlier work
[3] = system: nsPEF-opened conductance pores; assay: whole-cell patch clamp of membrane conductance/resistance after nsPEF exposure; format: cell-based; conditions: for condition of nsPEF-exposed cells: added prior to exposure to 1 or 5 pulses
Description: Patch clamp recording: Cells on a cover slip were transferred into a glass-bottomed chamber (Warner Instruments, Hamden, Conn.) mounted on a motorized stage (Prior Scientific Inc., Rockland, Mass.) of an IX71 FluoView™ 300 confocal laser scanning microscope. Recording pipettes were pulled from 1B150F-4 glass (World Precision Instruments, Sarasota, Fla.) to a tip resistance of 1.5-3 MOhm and moved into a position with a model 6500 hydraulic micromanipulator (Siskiyou, Grants Pass, Oreg.). Electrophysiology data were acquired using a Multiclamp 700B amplifier, Digidata 1322A A-D converter, and pCLAMP 10 software (Molecular Devices, Foster City, Calif.). The analog signal was low-pass filtered at 2 or 5 kHz, and digitized at “oversampling” rates of 10 to 50 kHz. The series resistance was not compensated. Typical values of the seal and access resistance were 4-15 GOhm and 4-10 MOhm, respectively, except for a solution pair HEPES/Cl. […] The data from these experiments were analyzed differently (see below).
As shown in the inventors preliminary experiments, nsPEF exposure could be damaging to the gigaohmic seal between the cell membrane and the glass pipette, thereby effectively destroying the patch-clamp recording configuration. […] The exposure of intact (rather than already “patched”) cells effectively removed any concerns about possible artifacts caused by the presence of the glass pipette during the exposure.
Once the whole-cell configuration was formed, the membrane resistance and capacitance (Rm and Cm) were measured using the Membrane Test utility of pClamp10 software. The holding level was set at −70 or −60 mV; 10- or 20-mV test pulses were applied at 30- to 100-Hz rates and averaged on-line (n=6-12). The membrane potential (MP) was measured by switching briefly from voltage to current clamp mode at I=0.
After Cm compensation, the holding membrane potential was set to −70 mV. In most experiments, the I-V relationship was obtained by applying voltage ramps, typically from −100 to +100 mV within 20-40 ms, and preceded by a brief step to −100 mV. Passive Gm was determined as the slope of the I-V curve by a best fit linear approximation through a region that contained no visible voltage-gated currents, usually from −80 to −50 mV. As one would expect, these Gm values correlated very closely with the inverse of Rm values measured using the Membrane Test. Erev was determined in a usual manner, as an intercept of the best fit line with abscissa.
Exposure to nsPEF and local E-field modeling: A Blumlein line pulse generator (Kolb, J. F., S. Kono, and K. H. Schoenbach. 2006. Nanosecond pulsed electric field generators for the study of subcellular effects. Bioelectromagnetics 27:172-187) produced nearly rectangular 60-ns pulses that were delivered to the selected cell by a pair of tungsten electrodes (0.125 mm electrode diameter, 0.31 mm gap between the electrodes). With a help of a micromanipulator, the electrodes were positioned 5-10 μm above the surface of the cover slip on the sides of the selected cell; the cell was in the middle of the gap between the electrodes, at a distance of about 50-100 μm from their tips.
To check if activation of endogenous NSCCs was responsible (at least in part) for observed nsPEF effects, an attempt was made by the inventors to modify these effects with ruthenium red and with lanthanide ions. It should be noted, however, that these substances are not truly specific and can affects various other channels and intracellular processes.
Ruthenium red was added to the bath solution of the K/Na pair (see Table 1) at 10, 50, or 200 μM prior to exposure to 1 or 5 pulses, and the whole-cell currents were recorded after the exposure in the usual manner.

SMILES	swelling and other deleterious effects of oxygen-glucose deprivation ([1]; 100 μM)	number of necrotic cells [2]	protective effect against nsPEF permeabilization ([3]; 0.2 mM, initial trials)	swelling and other deleterious effects of oxygen-glucose deprivation ([1]; 1 μM)	effect on membrane conductance increase by nsPEF ([3]; 10 μM in bath of K/Na pair, added prior to exposure)	effect on control (sham-exposed) cells ([3]; 50 μM in bath of K/Na pair)	condition of nsPEF-exposed cells ([3]; 50 μM in bath of K/Na pair)	effect on control (sham-exposed) cells ([3]; 200 μM in bath of K/Na pair)	condition of nsPEF-exposed cells ([3]; 200 μM in bath of K/Na pair)
[Cl][Gd]([Cl])[Cl] [Gd^3+, GdCl3]	reduced swelling	sharply decreased	no protection						
N.N.N.N.N.N.N.N.N.N.N.N.N.N.[Cl-].[Cl-].[Cl-].[Cl-].[Cl-].[Cl-].[O-2].[O-2].[Ru+3].[Ru+3].[Ru+4] [ruthenium red]				reduced swelling	neither enhanced nor inhibited	no apparent effect	worsened the condition of nsPEF-exposed cells	no apparent effect	worsened the condition of nsPEF-exposed cells
[Cl][La]([Cl])[Cl] [La^3+, LaCl3]	reduced swelling								
